Values of other authors as cited in patent publication US20100323028A1, “METHOD AND COMPOSITION FOR TREATING PULMONARY HEMORRHAGE” (JBS UNITED, INC., priority 2007, published 2010).

Test system: horses
Settings: alone or in combination not able to totally eliminate EIPH

NS(=O)(=O)c1cc(C(=O)O)c(NCc2ccco2)cc1Cl [furosemide]
Effect on EIPH: effective in reducing EIPH
